From paper PMC3842668, “Dual-acting stapled peptides target both HIV-1 entry and assembly” (Retrovirology, 2013)

Molecular target: T1, HIV-1 CA (Human immunodeficiency virus type 1 group M subtype B, UniProt P12493)
T1 construct: Wild-type HIV-1 CA was overexpressed and purified as previously described; made in house
Assay: Turbidity-based in vitro CA assembly assay
Format: biochemical
Details: turbidity at 350 nm, 50 mM NaPO4 pH 8.0
Experimental: The ability of stapled peptides to disrupt CA-CA interactions was also assessed using a turbidity-based in vitro CA assembly assay. This assay is based on the observation that the turbidity of a CA-containing solution increases in proportion to the extent of assembly.
Wild-type HIV-1 CA was overexpressed and purified as previously described. […] Turbidity assays were carried out in triplicate using a Beckman spectrophotometer at a wavelength of 350 nm to monitor HIV-1 in vitro assembly conducted at ambient temperatures. Protein samples were prepared in an assembly buffer [50 mM NaPO4 pH 8.0]. In vitro assembly reactions were prepared with 250 μl of assembly buffer containing 60 μM protein. To catalyze CA assembly 250 μl of an assembly buffer containing 5M NaCl was added. The solution was mixed by agitation and transferred a cuvette for a total delay of 20 seconds. Assembly was monitored every 10 sec for the first min and every min thereafter for a total 10 min. Assembly reactions with stapled peptides were incubated in the assembly buffer for 10 min and then centrifuged for 1 min to separate any insoluble fractions before catalyzing assembly.

Row | Substance | Effect on CA assembly, turbidity (in words)
1 | Ac-IRQGPKEPFRDYVDR-NH2 [NYAD-401, reference compound] | no observable effect on CA assembly

Same assay, conditions: turbidity at 350 nm, compound:CA ratio 2:1; mean ± standard deviation from three experiments; DMSO control 216 ± 6.23

Row | Substance | initial rate of CA assembly [mOD/min]
2 | Ac-IRQGPKEPFRDYVDR-NH2 [NYAD-401, reference compound] | 223 ± 32.5

System: 293T cells
Assay: not given
Details: FACS, 293T cells, 4 μM FAM-conjugated peptide, 20 h at 37°C, serum-free media, 0.25% Trypsin-EDTA 30 min

Row | Substance | % FAM [%]
3 | Ac-ISFDELLDYYGESGS [NYAD-41] | 1.43

System: MT-2 cells
Assay: not given
Details: not given

Row | Substance | CC 50 (μM ± SD) in MT-2 [µM]
4 | Ac-ISF-R8-ELLDYY-S5-EKSGSKD-amide (sidechain bridge or staple) [NYAD-55] | >89.7
5 | Ac-SK-R8-ELLDYY-S5-ESGS-amide (sidechain bridge or staple) [NYAD-64] | >109
6 | ISF-R8-ELLNYY-S5-ESGS-amide (sidechain bridge or staple) [NYAD-57] | 39.6 ± 4.4
7 | Ac-ISF-R8-EWLQYY-S5-R-amide (sidechain bridge or staple) [NYAD-33] | 9.2 ± 0.26
8 | Ac-RSFE-R8-LLDYYG-S5-SGS-amide (sidechain bridge or staple) [NYAD-65] | >116
9 | Ac-ISF-R8-ELLDYY-S5-ESGSKKK-amide (sidechain bridge or staple) [NYAD-44] | 17.2 ± 1.4
10 | Ac-ISF-R8-ELEDYY-S5-ESGS (sidechain bridge or staple) [NYAD-43] | >106.6
11 | Ac-R-R8-FAELLD-S5-YGESGS-amide (sidechain bridge or staple) [NYAD-63] | >113
12 | Ac-ISF-R8-ELLRYY-S5-R-amide (sidechain bridge or staple) [NYAD-56] | 16.4 ± 1.2
13 | IRF-R8-QLLNYY-S5-ESGS-amide (sidechain bridge or staple) [NYAD-58] | 14.9 ± 1
14 | Ac-RSF-R8-RLLDYY-S5-ESGS-amide (sidechain bridge or staple) [NYAD-61] | 31.7 ± 1.4
15 | Ac-RRF-R8-ELLDYY-S5-ESGS-amide (sidechain bridge or staple) [NYAD-62] | 15.4 ± 0.2
16 | Ac-ISF-R8-QLLDYY-S5-QSGSK-amide (sidechain bridge or staple) [NYAD-46] | 10.6 ± 0.6
